# Source: PubChem BioAssay (NCI)
#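 96-well plates; 48 h exposure; 5 concentrations. Endpoints by linear interpolation between flanking doses. Not reached: highest tested concentration assigned. Abbreviation: GI50, concentration required for 50% inhibition of growth. TGI marks complete inhibition of growth.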
# System: NCI-H522 lung
# Assay: NCI anticancer screen, dose series, 48 h
SMILES,GI50 [µM],TGI [µM]
CC1(C)[C@@H](OC(N)=O)[C@H]2O[C@H]2[C@]2(C=O)[C@H]3CC[C@]4(C)[C@@H](c5ccc(=O)oc5)[C@@H](Cl)C[C@]4(O)C3=CC[C@@H]12,0.0035,0.0104
CCCCON(OC(=O)c1ccc2ccc3cccc4ccc1c2c34)C(C)=O,19.4,45.7
Cc1[nH]c2ccccc2c(=O)c1CC=C(Cl)Cl,24.6,> 100
Clc1ccc(C=Nc2ccc3c(c2)Cc2ccccc2-3)c(Cl)c1,–,> 100
CN(C)CCN1C(=O)c2ccc3c4c(ccc(c24)C1=O)C(=O)N(CCN=C=S)C3=O,0.0311,0.145
O=C(/C=C\c1ccc(NCc2ccc(C(=O)O)cc2)cc1)CCl,1.65,3.24
O=C1CSC(c2ccc(Cl)cc2Cl)N1c1ccc(F)cc1 (configuration not stated),15.1,31.1
COc1cccc(C#Cc2ccccc2C#CCCCCO)c1,13.3,30
CC1=C[C@H]2c3c(c(O)c(O)c4oc(-c5ccccc5)cc(=O)c34)[C@H](c3cc(O)c(O)c4oc(-c5ccccc5)cc(=O)c34)[C@H]2C(C)(C)C1,1.77,6.23
COc1cccc2c(=O)c3c(sc12)c(N1CCNCC1)nc1ccccc13,1.79,3.69
CC(=O)N[C@H]1CSSC[C@@H](C(N)=O)NC(=O)[C@H](C(C)C)NC(=O)[C@H](C)NC(=O)[C@H](Cc2cnc[nH]2)NC1=O,> 100,> 100
O=C1CC2c3ccccc3CCC2c2ccccc21 (configuration not stated),–,46.7
COc1cc(NC(C)CCCN)c2nccc(C)c2c1 (configuration not stated),–,33.3

# System: RPMI-8226 leukemia
# Assay: NCI anticancer screen, dose series, 48 h
SMILES,GI50 [µM],TGI [µM]
Nc1ccc(-c2nc3ccc(Cc4ccc5nc(-c6ccc(N)cc6)[nH]c5c4)cc3[nH]2)cc1,25.7,> 100
Cn1c2ccccc2c(=O)c2ccc(Cl)cc21,–,> 10
O=S(=O)(Nc1cc(Sc2cccc3cccnc23)c(O)c2ccccc12)c1ccccc1,2.38,7.9
CN(C)C(=O)[C@H](O)[C@H](Cc1ccccc1)NC(=O)c1cc2cc(Cl)ccc2[nH]1,19.5,66.6
CC(C)(C[C@H]1CN(S(=O)(=O)c2cccc(C(F)(F)F)c2)c2cc(-c3cc(F)cc(OC(F)F)c3)ccc2O1)C(=O)O,3.45,17.6
Cc1ccc(-c2nc3ccc(Cl)cc3c(=O)n2N2C(=O)CSC2c2ccccc2Cl)cc1 (configuration not stated),> 100,> 100
O=C(O)C1C(Br)(c2ccccc2)C1(Br)c1ccccc1 (configuration not stated),–,74.1
C#Cc1c(I)n(C2OC(CO[Si](C)(C)C(C)(C)C)C3OC(C)(C)OC32)c(=O)[nH]c1=O (configuration not stated),3.63,13.7
CCSc1nc(SCC)c2cn[nH]c2n1,40.2,> 100
ClCC[N+]12CC[N+](CCCl)(CC1)C2,–,> 100
COc1ccc(CCN2COc3c([C@@H](C)CCC=C(C)C)ccc(C)c3C2)cc1OC,2.09,7.67
COc1cc(C(=O)c2cc(C)c3[nH]c4ccc(C)cc4c3c2C)cc(OC)c1OC,< 0.01,> 100
COc1cc(/C=C/c2cc(/C=C/c3ccc(O)c(OC)c3)n(C(=O)Nc3ccc(C)cc3C)n2)ccc1O,0.352,1.74
Cc1ccc2[nH]c(O)c(N=Nc3ccc(S(N)(=O)=O)cc3)c2c1,> 25,> 25
C=C1CCC(CC[C@@H]2CC[C@]3(OC2)O[C@@]2(O)CC[C@]3(C)OC2(C)C)C(C)(C)[C@H]1C/C=C1/C(=O)OC[C@@H]1O (some centres not stated),–,> 25.1
C[C@]12CC[C@@H]3c4cc(OCC(F)(F)F)c(O)cc4/C(=N/O)C[C@H]3[C@@H]1CC[C@@H]2O,0.0584,2.33
Cn1c(=O)c(Cc2ccccc2F)cc2cnc(NC3CCOCC3)nc21,> 25,> 25
COc1cc(/C=C/c2ccc(OC)c(OC)c2)cc(OC)c1,–,> 100

SMILES,GI50 [µM],TGI [µM]
CC1(C)[C@@H](OC(N)=O)[C@H]2O[C@H]2[C@]2(C=O)[C@H]3CC[C@]4(C)[C@@H](c5ccc(=O)oc5)[C@@H](Cl)C[C@]4(O)C3=CC[C@@H]12,0.00795,0.034
CCCCON(OC(=O)c1ccc2ccc3cccc4ccc1c2c34)C(C)=O,25.5,80.4
Cc1[nH]c2ccccc2c(=O)c1CC=C(Cl)Cl,84.4,> 100
Clc1ccc(C=Nc2ccc3c(c2)Cc2ccccc2-3)c(Cl)c1,–,> 100
CN(C)CCN1C(=O)c2ccc3c4c(ccc(c24)C1=O)C(=O)N(CCN=C=S)C3=O,0.0318,0.197
COc1ccc(/C=C/c2cc(OC)cc(=O)o2)cc1,–,> 100
O=C(/C=C\c1ccc(NCc2ccc(C(=O)O)cc2)cc1)CCl,9.07,35.3
O=C1CSC(c2ccc(Cl)cc2Cl)N1c1ccc(F)cc1 (configuration not stated),19.5,42.7
COc1cccc(C#Cc2ccccc2C#CCCCCO)c1,3.77,26.4
COc1cccc2c(=O)c3c(sc12)c(N1CCNCC1)nc1ccccc13,2.39,5.8
COc1c(CCl)cc(-c2cc(=O)c3ccccc3s2)cc1CCl,–,> 100
COc1cc2[nH]c(C(=O)c3cc(OC)c(OC)c(OC)c3)c(N)c2cc1C#CC1CC1,3.28,42.5
COc1ccc(/C=C/C(=O)C(CC2CCC2)C(=O)/C=C/c2ccc(OC)c(OC)c2)cc1OC,1.73,6.4
CC(=O)N[C@H]1CSSC[C@@H](C(N)=O)NC(=O)[C@H](C(C)C)NC(=O)[C@H](C)NC(=O)[C@H](Cc2cnc[nH]2)NC1=O,> 100,> 100
O=C1CC2c3ccccc3CCC2c2ccccc21 (configuration not stated),–,> 100
COc1cc(NC(C)CCCN)c2nccc(C)c2c1 (configuration not stated),–,60.7
CC(=O)C(=CN1CCN(C(=O)c2ccco2)C1=S)C(C)=O,2.74,> 100

# System: SNB-19 CNS
# Assay: NCI anticancer screen, dose series, 48 h
SMILES,GI50 [µM],TGI [µM]
Nc1ccc(-c2nc3ccc(Cc4ccc5nc(-c6ccc(N)cc6)[nH]c5c4)cc3[nH]2)cc1,3.24,18.2
Cn1c2ccccc2c(=O)c2ccc(Cl)cc21,–,4
CC(CO)(CO)NCCCCn1ccc2c1C(=O)c1c(c(O)c3ccccc3c1O)C2=O,18.4,42.2
O=S(=O)(Nc1cc(Sc2cccc3cccnc23)c(O)c2ccccc12)c1ccccc1,1.98,21.4
CN(C)C(=O)[C@H](O)[C@H](Cc1ccccc1)NC(=O)c1cc2cc(Cl)ccc2[nH]1,26.1,> 100
CC(C)(C[C@H]1CN(S(=O)(=O)c2cccc(C(F)(F)F)c2)c2cc(-c3cc(F)cc(OC(F)F)c3)ccc2O1)C(=O)O,5.92,20.7
Cc1ccc(-c2nc3ccc(Cl)cc3c(=O)n2N2C(=O)CSC2c2ccccc2Cl)cc1 (configuration not stated),5,> 100
O=C(O)C1C(Br)(c2ccccc2)C1(Br)c1ccccc1 (configuration not stated),–,> 100
C#Cc1c(I)n(C2OC(CO[Si](C)(C)C(C)(C)C)C3OC(C)(C)OC32)c(=O)[nH]c1=O (configuration not stated),24.1,78.8
CCSc1nc(SCC)c2cn[nH]c2n1,46.8,> 100
ClCC[N+]12CC[N+](CCCl)(CC1)C2,–,> 100
